Results on 28 compounds are retold here after patent publication US11746100B2 (GLOBAL BLOOD THERAPEUTICS, INC., priority 2020, dated 2023).

Molecules are shown by their SMILES.

This assay has as its target T1, human ferroportin (Homo sapiens, UniProt Q9NP59).
T1 construct: luciferase reporter (read with the Nano-Glo Luciferase Assay System); expressed in transfected cells; host or cells: CHO cells, stably transfected, expression induced with doxycycline
T1 sequence (Q9NP59 1-571): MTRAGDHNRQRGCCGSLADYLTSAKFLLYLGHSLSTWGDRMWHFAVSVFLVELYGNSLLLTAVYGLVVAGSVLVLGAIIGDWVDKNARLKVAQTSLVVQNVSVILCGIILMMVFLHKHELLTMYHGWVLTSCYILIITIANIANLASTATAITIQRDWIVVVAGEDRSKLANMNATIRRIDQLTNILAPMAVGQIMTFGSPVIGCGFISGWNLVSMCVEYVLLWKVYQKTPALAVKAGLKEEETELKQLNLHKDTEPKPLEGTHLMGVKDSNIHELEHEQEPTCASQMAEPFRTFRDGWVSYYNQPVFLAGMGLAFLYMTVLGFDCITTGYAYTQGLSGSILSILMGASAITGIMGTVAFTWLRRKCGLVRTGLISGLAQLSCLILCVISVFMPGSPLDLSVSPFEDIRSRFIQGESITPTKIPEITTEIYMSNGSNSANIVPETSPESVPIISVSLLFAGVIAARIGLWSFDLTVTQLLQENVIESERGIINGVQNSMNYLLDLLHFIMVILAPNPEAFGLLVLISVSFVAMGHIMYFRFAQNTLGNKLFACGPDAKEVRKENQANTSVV
Put plainly: Biological in-vitro ferroportin internalization assay (luciferase reporter). The note with it: average pEC50; stably-transfected CHO cell line expressing human ferroportin tagged to a luciferase reporter; 6 h incubation with test compound. It counts as cell-based. Summed up:
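Read-out is Nano-Glo luciferase signal after 6 h compound exposure, with average pEC50 derived. Cells are a stable CHO line carrying luciferase-tagged human ferroportin, pre-loaded 24 h with ferric ammonium citrate and doxycycline-induced for 24 h.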
On the technique in general: A reporter such as luciferase makes a cellular process visible.
What is called pEC50 is the EC50 on a negative log10 scale, so that one unit is a factor of ten. On to `CN(CC(=O)NC(C)(C)C)c1nc(-c2cc(OCC(C)(C)N(C)C)ccn2)nc2c1CCC2` [Compound 404, N-tert-butyl-2-[(2-{4-[2-(dimethylamino)-2-methylpropoxy]pyridin-2-yl}-5H,6H,7H-cyclopenta[d]pyrimidin-4-yl)(methyl)amino]acetamide], for which the pEC50 worked out at 8.

In the case of `CC(C)(C)NC(=O)CN(CCO)c1nc(-c2ccccn2)nc2c1CCC2` [Compound 37, N-tert-butyl-2-[(2-hydroxyethyl)[2-(pyridin-2-yl)-5H,6H,7H-cyclopenta[d]pyrimidin-4-yl]amino]acetamide], the pEC50 is 6.6.

`c1ccc(-c2nc3c(c(N4CCCO[C@H]5CCC[C@@H]54)n2)CCC3)nc1` [Compound 18, 2-{4-[(5aS,8aS)-octahydro-2H-cyclopenta[b][1,4]oxazepin-5-yl]-5H,6H,7H-cyclopenta[d]pyrimidin-2-yl}pyridine] displayed a pEC50 of 7.1.

In turn, `CN(CC(=O)NC(C)(C)C)c1nc(-c2cc(OCCF)ccn2)nc2c1CCC2` [Compound 241, N-tert-butyl-2-({2-[4-(2-fluoroethoxy)pyridin-2-yl]-5H,6H,7H-cyclopenta[d]pyrimidin-4-yl}(methyl)amino)acetamide] showed a negative logarithm of the EC50 (pEC50) of 8.

`CN(CC(=O)Nc1ccc(F)cc1)c1nc(-c2cn(C)cn2)nc2c1CCC2` [Compound 202, N-(4-fluorophenyl)-2-{methyl[2-(1-methyl-1H-imidazol-4-yl)-5H,6H,7H-cyclopenta[d]pyrimidin-4-yl]amino}acetamide] gave a pEC50 of 7.5.

In turn, `C[C@@H](CN(C)C)Oc1ccnc(-c2nc3c(c(N(C)CC(=O)NC(C)(C)C)n2)CCC3)c1` [Compound 402, N-tert-butyl-2-{[2-(4-{[(2S)-1-(dimethylamino)propan-2-yl]oxy}pyridin-2-yl)-5H,6H,7H-cyclopenta[d]pyrimidin-4-yl](methyl)amino}acetamide] registered a pEC50 of 7.8.

As to `CC(C)NC(=O)[C@@H](C)N(C)c1nc(-c2cc(O[C@@H]3CCN(C)C3)ccn2)nc2c1CCC2` [Compound 504, (2R)-2-{methyl[2-(4-{[(3R)-1-methylpyrrolidin-3-yl]oxy}pyridin-2-yl)-5H,6H,7H-cyclopenta[d]pyrimidin-4-yl]amino}-N-(propan-2-yl)propanamide], the negative-log EC50 (pEC50) came to 7.9.

Regarding `CN(CC(=O)Nc1ccccc1)c1nc(-c2ccccn2)nc2c1CCC2` [Compound 77, 2-{methyl[2-(pyridin-2-yl)-5H,6H,7H-cyclopenta[d]pyrimidin-4-yl]amino}-N-phenylacetamide], the pEC50 was found to be 7.

Take `CN(CC(=O)Nc1cnn(C)c1)c1nc(-c2cn(C)cn2)nc2c1CCC2` [Compound 220, N-(1-methyl-1H-pyrazol-4-yl)-2-{methyl[2-(1-methyl-1H-imidazol-4-yl)-5H,6H,7H-cyclopenta[d]pyrimidin-4-yl]amino}acetamide]: the pEC50 was 7.

In turn, `COc1cccc(NC(=O)CN(C)c2nc(-c3cn(C)cn3)nc3c2CCC3)c1` [Compound 272, N-(3-methoxyphenyl)-2-{methyl[2-(1-methyl-1H-imidazol-4-yl)-5H,6H,7H-cyclopenta[d]pyrimidin-4-yl]amino}acetamide] came in with a pEC50 of 7.8.

The compound `CN(C)CCOc1ccnc(-c2nc3c(c(NCC(=O)NC(C)(C)C)n2)CCC3)c1` [Compound 484, N-tert-butyl-2-[(2-{4-[2-(dimethylamino)ethoxy]pyridin-2-yl}-5H,6H,7H-cyclopenta[d]pyrimidin-4-yl)amino]acetamide] registered a pEC50 of 7.

Compound `CN(CC(=O)NC(C)(C)C)c1nc(-c2cc3ncsc3cn2)nc2c1CCC2` [Compound 328, N-tert-butyl-2-[methyl(2-{[1,3]thiazolo[5,4-c]pyridin-6-yl}-5H,6H,7H-cyclopenta[d]pyrimidin-4-yl)amino]acetamide] came in with a negative-log EC50 (pEC50) of 6.8.

The compound `Cc1ccnc(-c2nc3c(c(N4CCCCCC4)n2)CCC3)c1` [Compound 14, 1-[2-(4-methylpyridin-2-yl)-5H,6H,7H-cyclopenta[d]pyrimidin-4-yl]azepane] showed a pEC50 of 6.8.

Take `COc1ccnc(-c2nc3c(c(N(C)CC(=O)N4CCOCC4)n2)CCC3)c1` [Compound 477, 2-{[2-(4-methoxypyridin-2-yl)-5H,6H,7H-cyclopenta[d]pyrimidin-4-yl](methyl)amino}-1-(morpholin-4-yl)ethan-1-one]: the negative-log EC50 (pEC50) is 6.9.

With `CC1(C)CC[C@@H](Nc2nc(-c3ccccn3)nc3c2CCC3)C(=O)N1` [Compound 55, (3R)-6,6-dimethyl-3-{[2-(pyridin-2-yl)-5H,6H,7H-cyclopenta[d]pyrimidin-4-yl]amino}piperidin-2-one], the pEC50 is reported as 6.3.

Compound `CC(C)(C)NC(=O)CNc1cc(-c2ccccn2)nc2c1CCC2` [Compound 9, N-tert-butyl-2-{[2-(pyridin-2-yl)-5H,6H,7H-cyclopenta[b]pyridin-4-yl]amino}acetamide] returned a pEC50 of 6.2.

Compound `CN(CC(=O)NC(C)(C)C)c1nc(-c2cc(OCCN3CC[C@H](F)C3)ccn2)nc2c1CCC2` [Compound 474, N-tert-butyl-2-{[2-(4-{2-[(3S)-3-fluoropyrrolidin-1-yl]ethoxy}pyridin-2-yl)-5H,6H,7H-cyclopenta[d]pyrimidin-4-yl](methyl)amino}acetamide] came in with a pEC50 of 8.3.

In the case of `COc1ccnc(-c2nc3c(c(N(C)CC(=O)N4CC[C@H](O)C4)n2)CCC3)c1` [Compound 472, 1-[(3S)-3-hydroxypyrrolidin-1-yl]-2-{[2-(4-methoxypyridin-2-yl)-5H,6H,7H-cyclopenta[d]pyrimidin-4-yl](methyl)amino}ethan-1-one], the pEC50 turned out to be 7.4.

Turning to `CC[C@@](C)(O)COc1ccnc(-c2nc3c(c(N(C)CC(=O)NC(C)(C)C)n2)CCC3)c1` [Compound 445, N-tert-butyl-2-[(2-{4-[(2R)-2-hydroxy-2-methylbutoxy]pyridin-2-yl}-5H,6H,7H-cyclopenta[d]pyrimidin-4-yl)(methyl)amino]acetamide], the negative-log EC50 (pEC50) was 8.3.

Consider `CN(C)CC(C)(C)Oc1ccnc(-c2nc3c(c(N(C)CC(=O)NC(C)(C)C)n2)CCC3)c1` [Compound 407, N-tert-butyl-2-{[2-(4-{[1-(dimethylamino)-2-methylpropan-2-yl]oxy}pyridin-2-yl)-5H,6H,7H-cyclopenta[d]pyrimidin-4-yl](methyl)amino}acetamide], for which the pEC50 was found to be 6.6.

In turn, `CSCC[C@H](C(=O)NC(C)(C)C)N(C)c1nc(-c2ccccn2)nc2c1CCC2` [Compound 116, (2R)—N-tert-butyl-2-{methyl[2-(pyridin-2-yl)-5H,6H,7H-cyclopenta[d]pyrimidin-4-yl]amino}-4-(methylsulfanyl)butanamide] had a negative-log EC50 (pEC50) of 7.4.

The compound `CN(CC(=O)NC(C)(C)CO)c1nc(-c2cc(OCCO)ccn2)nc2c1CCC2` [Compound 148, N-(1-hydroxy-2-methylpropan-2-yl)-2-({2-[4-(2-hydroxyethoxy)pyridin-2-yl]-5H,6H,7H-cyclopenta[d]pyrimidin-4-yl}(methyl)amino)acetamide] showed a negative logarithm of the EC50 (pEC50) of 7.6.

`COc1ccc(NC(=O)CN(C)c2nc(-c3cc(OCCN(C)C)ccn3)nc3c2CCC3)cn1` [Compound 344, 2-[(2-{4-[2-(dimethylamino)ethoxy]pyridin-2-yl}-5H,6H,7H-cyclopenta[d]pyrimidin-4-yl)(methyl)amino]-N-(6-methoxypyridin-3-yl)acetamide] registered a pEC50 of 7.6.

`COc1ccnc(-c2nc3c(c(N(C)CC(=O)N[C@@H]4CCC[C@@H]4O)n2)CCC3)c1` (relative stereo) [Compound 170, N-[(1R,2S)-2-hydroxycyclopentyl]-2-{[2-(4-methoxypyridin-2-yl)-5H,6H,7H-cyclopenta[d]pyrimidin-4-yl](methyl)amino}acetamide] yielded a pEC50 of 7.8.

In turn, `CC(C)NC(=O)CN(C)c1nc(-c2cc(OCC(C)(C)O)ccn2)nc2c1CC(C)(C)C2` [Compound 449, 2-({2-[4-(2-hydroxy-2-methylpropoxy)pyridin-2-yl]-6,6-dimethyl-5H,6H,7H-cyclopenta[d]pyrimidin-4-yl}(methyl)amino)-N-(propan-2-yl)acetamide] came in with a negative logarithm of the EC50 (pEC50) of 7.2.

Compound `CC[C@H](O)COc1ccnc(-c2nc3c(c(N(C)CC(=O)NC(C)(C)C)n2)CCC3)c1` [Compound 394, (S)—N-(tert-butyl)-2-((2-(4-(2-hydroxybutoxy)pyridin-2-yl)-6,7-dihydro-5H-cyclopenta[d]pyrimidin-4-yl)(methyl)amino)acetamide] yielded a negative-log EC50 (pEC50) of 8.3.

`CN(CC(=O)Nc1ccn(C)n1)c1nc(-c2cc3cn[nH]c3cn2)nc2c1CCC2` [Compound 232, 2-[methyl(2-{1H-pyrazolo[3,4-c]pyridin-5-yl}-5H,6H,7H-cyclopenta[d]pyrimidin-4-yl)amino]-N-(1-methyl-1H-pyrazol-3-yl)acetamide]: the negative logarithm of the EC50 (pEC50) was found to be 7.

Compound `c1ccc(-c2nc3c(c(N4CCCOCC4)n2)CCC3)nc1` [Compound 93, 4-[2-(pyridin-2-yl)-5H,6H,7H-cyclopenta[d]pyrimidin-4-yl]-1,4-oxazepane] had a pEC50 of 6.1.
